Assay results from US4689346A, “Therapeutic 1-(acylamino)-naphthalene-4-sulphonic acid derivatives” (Laboratorio Fides, S.A., priority 1982, dated 1987).
Like-named read-outs stand apart in the source and are kept apart here.

Assays:
[1] = test system: mean bleeding (clotting) time measured in a rabbit ear; assay: Hemostatic activity: mean bleeding (clotting) time in a rabbit ear, technique of Roskam and Pauwen; type: in vivo; conditions: i.v.
Method: The hemostatic activity is determined by means of a quantitative study of the mean bleeding (clotting) time measured in a rabbit ear by the technique described by Roskam and Pauwen.
Ethamsylate was used as a standard, and the results obtained were as follows: […]

fibrin plates = assay: Antifibrinolytic activity in vitro by means of fibrin plates, modified and standardized method of Astrup and Mullertz; type: biochemical; conditions: AMCHA as standard (= 1)
Method: The antifibrinolytic activity is evaluated "in vitro" by means of fibrin plates according to the modified and standardized method of Astrup and Mullertz.
The antifibrinolytic activity of the test solution is calculated by interpolating the lysis response in a dose/response curve obtained with reference solutions (graduated dilutions of a standard enzyme). AMCHA was used as a standard antifibrinolytic compound.

[2] = test system: vascular permeability produced by histamine; assay: Capillary permeability, Lefebre's method (vascular permeability produced by histamine in rats); type: in vivo; conditions: 0.100 g/kg, subcutaneous
Method: The effect on the capillary permeability is determined by means of Lefebre's method, which is based on measuring, at the time of appearance of a coloration, the vascular permeability produced by histamine in rats that have been injected with the product under investigation. Ethamsylate is used as a standard, and the results obtained are as follows: […]

capillary resistance = assay: Capillary resistance, modified technique based on that of Lavollay (time to first central petechiae under vacuum, scorbutic diet); type: in vivo; conditions: 0.175 g/kg, oral, guinea-pigs, four weeks
Method: The effect on the capillary resistance is determined by means of a modified technique based on that of Lavollay. An increasingly powerful vacuum is applied to the skin, and the time that elapses before the first central petechiae appear is taken as a measure of the capillary resistance. Three batches of guinea-pigs are used for each product tested, one batch being a normal batch and the two other batches being subjected to a scorbutic diet, one of the latter batches having received the product under investigation from the start of the trial. An initial basal reading and other weekly readings are taken for four weeks. Ethamsylate is used as a standard.

[3] = Acute toxicity, LD50 in mice; type: in vivo; conditions: mouse, in vivo
Method: (§1) The LD50 in mice is determined for the endovenous, intraperitoneal and oral routes.

mice = assay: Acute toxicity, LD50 in mice; type: in vivo; conditions: for Acute toxicity, LD50, I.v. route: i.v. (endovenous)
Method: as §1

SMILES	Hemostatic activity, % Effect ([1]; 10 mg/kg)	Antifibrinolytic activity, Relative capacity (fibrin plates)	Antifibrinolytic activity, Weight capacity (fibrin plates)	Capillary permeability, % Effect [2]	Capillary resistance, % Effect (capillary resistance)	LD50 ([3]; iv, i.v. (endovenous), read-out: Acute toxicity, LD50, I.v. route)	Hemostatic activity, % Effect ([1]; 25 mg/kg)	Hemostatic activity, % Effect ([1]; 100 mg/kg)	LD50 ([3]; ip, read-out: Acute toxicity, LD50, I.p. route)	LD50 ([3]; po, read-out: Acute toxicity, LD50, Oral route)	Acute toxicity, LD50, I.v. route (mice)	Acute toxicity, LD50, I.p. route (mice)	Acute toxicity, LD50, Oral route (mice)
O=S(=O)(O)c1cc(O)ccc1O [Ethamsylate, reference compound]	22.11%	0.47	0.28	26.33%	14.18%	800 mg/kg							
CC(=O)Nc1c(OC(C)=O)cc(S(=O)(=O)O)c2ccccc12 [Example 5, sodium N,O-diacetyl-1-amino-2-naphthol-4-sulphonate]		1.19	0.55		26%		10.6%						
CC(=O)Oc1cc(S(=O)(=O)O)c2ccccc2c1N(C(C)=O)C(C)=O [Example 1, potassium N,N,O-triacetyl-1-amino-2-naphthol-4-sulphonate]	18.2%	2.06	0.91	19%	23.6%			23%	3560 mg/kg	> 7000 mg/kg	0.653 g/kg		
NC[C@H]1CC[C@H](C(=O)O)CC1 [AMCHA, trans-4-(aminomethyl)-cyclohexanecarboxylic acid, reference compound]	22.5%		1	-2%	20.08%			26.5%					
CC(=O)Oc1cc(S(=O)(=O)O)c2ccccc2c1N(C(C)=O)C(C)=O [Example 4, sodium N,N,O-triacetyl-1-amino-2-naphthol-4-sulphonate]	29.7%	2.61	1.21		17.9%			29.8%			3.51 g/kg	5.26 g/kg	> 7 g/kg
CC(=O)Oc1cc(S(=O)(=O)O)c2ccccc2c1N(C(C)=O)C(C)=O [Example 2, morpholine N,N,O-triacetyl-1-amino-2-naphthol-4-sulphonate]	24.7%	1.67	0.59	29%	23.95%			13%			1.53 g/kg	4.04 g/kg	> 7 g/kg
CC(=O)Oc1cc(S(=O)(=O)O)c2ccccc2c1N(C(C)=O)C(C)=O [Example 11, AMCHA N,N,O-triacetyl-1-amino-2-naphthol-4-sulphonate]	20%	3.36	1.19	14%	22.6%			32%					
